This test addresses T1, VEGF-A/VEGFR1 (recombinant VEGF-A binding to immobilized VEGFR1) (Homo sapiens, UniProt P17948).
T1 construct: purchased R&D Systems
Briefly: Competitive ELISA for VEGF-A/VEGFR-1 interaction. Type of test: biochemical. Here is the method:
The competitive ELISA based assay was performed by coating on 96-well plates a recombinant form of VEGFR-1 (R&D Systems, Minneapolis, MN, USA) at 0.5 µg/mL in PBS, 100 µL/well (the same volume was used for all subsequent steps), 16 h at room temperature. The plate was then blocked for 3 h at RT with 1% bovine serum albumin (BSA). Recombinant form of VEGF-A (R&D Systems) at 5 ng/mL in PBS containing 0.1% BSA, 5 mM EDTA, 0.004% Tween 20 (PBET) and 4% DMSO, was added alone or mixed with peptides at a concentration ranging between 0.04 and 100 µM, and incubated for 1 h at 37 °C followed by 1 h at RT. A biotinylated anti VEGF-A polyclonal antibody (R&D Systems) diluted in PBET at 150 ng/mL, was added to the wells and incubated for 1 h at 37 °C followed by 1 h at RT. […] The reaction was blocked by adding 30 µL/well of 4 N H2SO4 and the absorbance measured at 490 nm on a microplate reader (BenchMark, Biorad, Hercules, CA, USA).
On the technique in general: In an ELISA, binding on a coated surface is turned into a signal by an enzyme label.

[1] abbreviates: competitive ELISA, VEGFR-1 coated 0.5 µg/mL, VEGF-A 5 ng/mL, peptides 0.04-100 µM, PBET, 4% DMSO, 1 h 37 °C then 1 h RT, absorbance 490 nm, mean of two independent experiments in triplicate, read-out: IC50 of VEGF-A binding to VEGFR1 (concentration at 50% inhibition).

Counter-ions that a name gives are not always drawn. Like-named read-outs stand apart in the source and are kept apart here.

T1 sequence (P17948 27-687 limits assumed, species assumed): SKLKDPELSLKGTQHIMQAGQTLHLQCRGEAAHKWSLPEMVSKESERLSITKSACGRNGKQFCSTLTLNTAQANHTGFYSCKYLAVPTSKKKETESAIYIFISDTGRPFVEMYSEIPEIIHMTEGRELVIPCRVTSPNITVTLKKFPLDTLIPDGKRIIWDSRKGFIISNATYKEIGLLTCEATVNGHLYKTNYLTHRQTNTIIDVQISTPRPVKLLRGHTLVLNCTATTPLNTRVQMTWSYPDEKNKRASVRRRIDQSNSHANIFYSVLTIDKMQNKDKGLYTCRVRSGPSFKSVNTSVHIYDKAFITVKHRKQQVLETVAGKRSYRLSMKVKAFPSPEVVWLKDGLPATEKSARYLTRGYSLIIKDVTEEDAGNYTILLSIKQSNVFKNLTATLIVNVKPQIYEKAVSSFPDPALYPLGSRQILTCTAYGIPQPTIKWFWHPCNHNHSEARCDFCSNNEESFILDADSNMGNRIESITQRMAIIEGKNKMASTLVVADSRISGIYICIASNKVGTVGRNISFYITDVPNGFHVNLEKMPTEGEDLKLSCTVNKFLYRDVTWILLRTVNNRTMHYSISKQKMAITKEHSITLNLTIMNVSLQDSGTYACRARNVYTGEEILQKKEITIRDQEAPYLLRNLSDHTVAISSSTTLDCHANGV

Regarding `N[C@H](CCC(=O)O)C(=O)N[C@@H](CSCc1ccccc1)C(=O)N[C@@H](CC1CCCCC1)C(=O)NCCCC[C@H](NC(=O)[C@H](CC1CCCCC1)NC(=O)[C@H](CSCc1ccccc1)NC(=O)[C@H](N)CCC(=O)O)C(=O)NCCCC[C@H](NC(=O)[C@H](CCCCNC(=O)[C@H](CC1CCCCC1)NC(=O)[C@H](CSCc1ccccc1)NC(=O)[C@H](N)CCC(=O)O)NC(=O)[C@H](CC1CCCCC1)NC(=O)[C@H](CSCc1ccccc1)NC(=O)[C@H](N)CCC(=O)O)C(=O)NCC(=O)O` [iVR1, [D-Glu-L-Cys(Bzl)-L-Cha]4-Lys2-Lys-Gly], where the note is “acetate counter-ion, VEGF-A/VEGFR1, read-out: IC50 of iVR1 after TFA replaced with acetate (rounded, discussion)”, the IC50 is < 2000 nM. As to `N[C@H](CCC(=O)O)C(=O)N[C@@H](CSCc1ccccc1)C(=O)N[C@@H](CC1CCCCC1)C(=O)NCCCC[C@H](NC(=O)[C@H](CC1CCCCC1)NC(=O)[C@H](CSCc1ccccc1)NC(=O)[C@H](N)CCC(=O)O)C(=O)NCCCC[C@H](NC(=O)[C@H](CCCCNC(=O)[C@H](CC1CCCCC1)NC(=O)[C@H](CSCc1ccccc1)NC(=O)[C@H](N)CCC(=O)O)NC(=O)[C@H](CC1CCCCC1)NC(=O)[C@H](CSCc1ccccc1)NC(=O)[C@H](N)CCC(=O)O)C(=O)NCC(=O)O` [iVR1-Ac, [D-Glu-L-Cys(Bzl)-L-Cha]4-Lys2-Lys-Gly], the IC50 under setting [1] was determined as 1940 nM. Further, the “Increase in inhibitory activity (reduction of IC50) upon TFA to acetate exchange” value (iVR1-Ac vs iVR1-TFA, VEGF-A/VEGFR1 competitive ELISA) is “about five”. As to `N[C@H](CCC(=O)O)C(=O)N[C@@H](CSCc1ccccc1)C(=O)N[C@@H](CC1CCCCC1)C(=O)NCCCC[C@H](NC(=O)[C@H](CC1CCCCC1)NC(=O)[C@H](CSCc1ccccc1)NC(=O)[C@H](N)CCC(=O)O)C(=O)NCCCC[C@H](NC(=O)[C@H](CCCCNC(=O)[C@H](CC1CCCCC1)NC(=O)[C@H](CSCc1ccccc1)NC(=O)[C@H](N)CCC(=O)O)NC(=O)[C@H](CC1CCCCC1)NC(=O)[C@H](CSCc1ccccc1)NC(=O)[C@H](N)CCC(=O)O)C(=O)NCC(=O)O` [iVR1-TFA, [D-Glu-L-Cys(Bzl)-L-Cha]4-Lys2-Lys-Gly], the IC50 under setting [1] was determined as 9350 nM.

The values above are taken from paper PMC7014271, “Oral Delivery of a Tetrameric Tripeptide Inhibitor of VEGFR1 Suppresses Pathological Choroid Neovascularization” (International Journal of Molecular Sciences, 2020).
